In patent US9695155B2, “Herbicidal substituted pyrimidinyloxy benzene compounds” (E. I. DU PONT DE NEMOURS AND COMPANY, priority 2013, dated 2017):

Legend:
bluegrass [1] = assay: Test D preemergence; format: in vivo, Poa annua
Summary of the method: (§1)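 Solvent/surfactant formulations are sprayed pre (silt loam) or post (1–4 leaf plants, 2–18 cm). Plants stay 7–21 days in controlled conditions before a visual 0–100 score is given.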

canarygrass = assay: Test D preemergence; format: in vivo, Phalaris minor
Excerpt: (§2) Seeds of plant species selected from bluegrass (annual bluegrass, Poa annua), blackgrass (Alopecurus myosuroides), canarygrass (littleseed canarygrass, Phalaris minor), chickweed (common chickweed, Stellaria media), galium (catchweed bedstraw, Galium aparine), bromegrass, downy (downy bromegrass, Bromus tectorum), field poppy (Papaver rhoeas), field violet (Viola arvensis), green foxtail (Setaria viridis), deadnettle (henbit deadnettle, Lamium amplexicaule), Italian ryegrass (Lolium multiflorum), kochia (Kochia scoparia), lambsquarters (Chenopodium album), oilseed rape (Brassica napus), pigweed (Amaranthus retroflexus), chamomile (scentless chamomile, Matricaria inodora), Russian thistle (Salsola kali), speedwell (bird's-eye speedwell, Veronica persica), spring barley (Hordeum vulgare), spring wheat (Triticum aestivum), wild buckwheat (Polygonum convolvulus), wild mustard (Sinapis arvensis), wild oat (Avena fatua), wild radish (Raphanus raphanistrum), windgrass (Apera spica-venti), winter barley (Hordeum vulgare), and winter wheat (Triticum aestivum) were planted into a silt loam soil and treated preemergence with test chemicals formulated in a non-phytotoxic solvent mixture which included a surfactant.
(§3) At the same time, these species were planted in pots containing Redi-Earth® planting medium (Scotts Company, 14111 Scottslawn Road, Marysville, Ohio 43041) comprising spaghnum peat moss, vermiculite, wetting agent and starter nutrients and treated with postemergence applications of the test chemicals formulated in the same manner. Plants ranged in height from 2 to 18 cm (1- to 4-leaf stage). Treated plants and controls were maintained in a controlled growth environment for 7 to 21 days after which time all species were compared to controls and visually evaluated. Plant response ratings, summarized in Table D, are based on a scale of 0 to 100 where 0 is no effect and 100 is complete control. A dash (-) response means no test result.

deadnettle = assay: Test D preemergence; format: in vivo, Lamium amplexicaule
Excerpt: as §2, §3

oilseed rape = assay: Test D preemergence; format: in vivo, Brassica napus
Summary of the method: as §1

pigweed = assay: Test D preemergence; format: in vivo, Amaranthus retroflexus
Excerpt: as §2, §3

speedwell = assay: Test D preemergence; format: in vivo, Veronica persica
Summary of the method: as §1

spring wheat = assay: Test D preemergence; format: in vivo, Triticum aestivum
Summary of the method: as §1

wild oat = assay: Test D preemergence; format: in vivo, Avena fatua
Summary of the method: as §1

bluegrass [2] = assay: Test D postemergence; format: in vivo, Poa annua
Excerpt: as §2, §3

lambsquarters = assay: Test D postemergence; format: in vivo, Chenopodium album
Excerpt: as §2, §3

wild buckwheat = assay: Test D postemergence; format: in vivo, Polygonum convolvulus
Excerpt: as §2, §3

[3] = 16 g ai/ha, scale 0 (no effect) to 100 (complete control)
[4] = 31 g ai/ha, scale 0 (no effect) to 100 (complete control)
[5] = Postemergence, 62 g ai/ha, scale 0 to 100 (0 no effect, 100 complete control)
[6] = Postemergence, 31 g ai/ha, scale 0 to 100 (0 no effect, 100 complete control)
[7] = Postemergence, 125 g ai/ha, scale 0 to 100 (0 no effect, 100 complete control)
[8] = postemergence, 16 g ai/ha, scale 0 to 100, 0 no effect, 100 complete control

In the case of FCc1cccc(Oc2ncc(Cl)cn2)c1-n1cc(I)cn1 [Compound 245], the “Plant response rating, Bluegrass” value (bluegrass [1]; [3]) is reported as 0, the “Plant response rating, Bluegrass” value (bluegrass [1]; 31 g ai/ha, scale 0-100) is reported as 0 and the “Plant response rating, Bluegrass” value (bluegrass [1]; 62 g ai/ha, scale 0-100) is reported as 0. The “Plant response rating, Bluegrass” value (bluegrass [1]; 125 g ai/ha, scale 0-100) was 20, the “Plant response rating, Canarygrass” value (canarygrass; [3]) was 0 and the “Plant response rating, Canarygrass” value (canarygrass; 31 g ai/ha, scale 0-100) was 0. The “Plant response rating, Canarygrass” value (canarygrass; 62 g ai/ha, scale 0-100) was 15, the “Plant response rating, Canarygrass” value (canarygrass; 125 g ai/ha, scale 0-100) was 35 and the “Plant response rating, Deadnettle” value (deadnettle; [3]) was 0. The “Plant response rating, Deadnettle” value (deadnettle; 31 g ai/ha, scale 0-100) was 0, the “Plant response rating, Deadnettle” value (deadnettle; 62 g ai/ha, scale 0-100) was 0 and the “Plant response rating, Deadnettle” value (deadnettle; 125 g ai/ha, scale 0-100) was 15. For the same molecule, the “Plant response rating, Oilseed Rape” value (oilseed rape; [3]) was 0, the “Plant response rating, Oilseed Rape” value (oilseed rape; 31 g ai/ha, scale 0-100) was 0 and the “Plant response rating, Oilseed Rape” value (oilseed rape; 62 g ai/ha, scale 0-100) was 30. The “Plant response rating, Oilseed Rape” value (oilseed rape; 125 g ai/ha, scale 0-100) was 100, the “Plant response rating, Pigweed” value (pigweed; [3]) was 98 and the “Plant response rating, Pigweed” value (pigweed; [4]) was 100. The “Plant response rating, Pigweed” value (pigweed; 125 g ai/ha, scale 0-100) was 100, the “Plant response rating, Speedwell” value (speedwell; [3]) was 5 and the “Plant response rating, Speedwell” value (speedwell; [4]) was 100. For the same molecule, the “Plant response rating, Speedwell” value (speedwell; 125 g ai/ha, scale 0-100) was 100, the “Plant response rating, Wheat, Spring” value (spring wheat; [3]) was 5 and the “Plant response rating, Wheat, Spring” value (spring wheat; [4]) was 10. The “Plant response rating, Wheat, Spring” value (spring wheat; 125 g ai/ha, scale 0-100) was 20, the “Plant response rating, Oat, Wild” value (wild oat; [3]) was 0 and the “Plant response rating, Oat, Wild” value (wild oat; 31 g ai/ha, scale 0-100) was 5. For the same molecule, the “Plant response rating, Oat, Wild” value (wild oat; 62 g ai/ha, scale 0-100) was 20, the “Plant response rating, Oat, Wild” value (wild oat; 125 g ai/ha, scale 0-100) was 15 and the “Plant response rating, Bluegrass” value (bluegrass [2]; [5]) was 15. The “Plant response rating, Bluegrass” value (bluegrass [2]; [6]) was 20, the “Plant response rating, Bluegrass” value (bluegrass [2]; [7]) was 30 and the “Plant response rating, Bluegrass” value (bluegrass [2]; [8]) was 10. For the same molecule, the “Plant response rating, Lambsquarters” value (lambsquarters; 16 g ai/ha, scale 0-100) was 65, the “Plant response rating, Lambsquarters” value (lambsquarters; 31 g ai/ha, scale 0 to 100 (0 no effect, 100 complete control)) was 80 and the “Plant response rating, Lambsquarters” value (lambsquarters; 62 g ai/ha, scale 0 to 100 (0 no effect, 100 complete control)) was 85. For the same molecule, the “Plant response rating, Lambsquarters” value (lambsquarters; 125 g ai/ha, scale 0 to 100 (0 no effect, 100 complete control)) was 95, the “Plant response rating, Buckwheat, Wild” value (wild buckwheat; [5]) was 75 and the “Plant response rating, Buckwheat, Wild” value (wild buckwheat; [6]) was 70. For the same molecule, the “Plant response rating, Buckwheat, Wild” value (wild buckwheat; [7]) was 90 and the “Plant response rating, Buckwheat, Wild” value (wild buckwheat; [8]) was 70.
